Experimental data from ChEMBL document CHEMBL3137667, “[Drug-induced liver injury; fourteenth updated edition of the bibliographic database of liver injuries and related drugs]” (Gastroenterol Clin Biol, 2004).

Experiments:
[1] = human
[2] = Highest frequency of moderate liver toxicity observed during clinical trials, expressed as a percentage. [column '% BIOL' in source]; conditions: human
[3] = human; remark: listed apart in the source
[4] = human; remark: listed apart in the source
[5] = human; remark: listed apart in the source
[6] = human, serum
[7] = human, serum, 4383 h
[8] = Highest frequency of acute liver toxicity observed during clinical trials, expressed as a percentage. [column '% AIGUE' in source]; conditions: human
[9] = human; remark: listed apart in the source
[10] = human; remark: listed apart in the source
[11] = Times to onset, minimal and maximal, observed in the indexed observations. [column 'DELAI' in source]; conditions: human
[12] = human; remark: listed apart in the source
[13] = human; remark: listed apart in the source
[14] = human, serum; remark: listed apart in the source
[15] = Presence of at least one case with successful reintroduction. [column 'REINT' in source]; conditions: human
[16] = human; remark: listed apart in the source
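Throughout, for Hepatotoxicity (association with vascular disease): count of indexed literature references reporting vascular liver injury in humans, e.g. peliosis hepatitis, hepatic veno-occlusive disease or Budd-Chiari syndrome.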
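Throughout, for Hepatotoxicity (benign tumour): value is a count of indexed literature references citing a benign tumour confirmed by histopathology.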
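Throughout, for Hepatotoxicity (choleostasis): human cholestatic liver injury, shown by histopathology or by peak ALT or AST elevation over alkaline phosphatase ratio below 2, value counts indexed literature reports.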
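Throughout, for Hepatotoxicity (chronic liver disease): chronic liver injury confirmed by histopathology or persistently raised serum aminotransferase activity beyond 6 months, value given as the count of indexed literature references.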
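Throughout, for Hepatotoxicity (cirrhosis): value is a count of indexed literature references reporting cirrhosis confirmed by histopathology.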
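Throughout, for Hepatotoxicity (cytolytic): human cytolytic liver injury, shown by histopathology or by a ratio above 5 of peak ALT or AST elevation to alkaline phosphatase elevation, value counts indexed references.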
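Throughout, for Hepatotoxicity (granulomatous hepatitis): value is a count of indexed literature references reporting granulomatous liver disease confirmed by histopathology.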
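Throughout, for Hepatotoxicity (malignant tumour): malignant tumour confirmed by histopathology, value gives the count of indexed literature references reporting it.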
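Throughout, for Hepatotoxicity (severe hepatitis): human clinical data: severe hepatitis, meaning potentially life-threatening liver failure or clinically observed cases, the value counts how many indexed literature references report it.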
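Throughout, for Hepatotoxicity (steatosis): steatosis confirmed by histopathology, value is the count of indexed references.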

Row | Compound | Hepatotoxicity (malignant tumour) [1] | Hepatotoxicity (moderate) [2] | Hepatotoxicity (association with vascular disease) [3] | Hepatotoxicity (cirrhosis) [4] | Hepatotoxicity (cytolytic) [5] | Hepatotoxicity (acute) [6] | Hepatotoxicity (chronic liver disease) [7] | Hepatotoxicity (acute) [8] | Hepatotoxicity (benign tumour) [9] | Hepatotoxicity (choleostasis) [10] | Hepatotoxicity (time to onset) [11] | Hepatotoxicity (steatosis) [12] | Hepatotoxicity (granulomatous hepatitis) [13] | Hepatotoxicity (moderate) [14] | Hepatotoxicity (successful reintroduction) [15] | Hepatotoxicity (severe hepatitis) [16]
1 | O=C(CCCN1CCC(O)(c2ccc(Br)cc2)CC1)c1ccc(F)cc1 [BROMPERIDOL] | 0 | 0% | 0 | 0 | 0 | 1 | 0 | 0% | 0 | 0 | 2 weeks - 6 weeks | 0 | 0 | 0 | yes | 0
2 | INSULIN HUMAN | 0 | 0% | 0 | 0 | 1 | 1 | 0 | 0% | 0 | 0 | 6 days - 1 month | 0 | 0 | 5 | yes | 0
3 | CC(=O)O[C@H]1CC[C@H]2[C@@H]3CC[C@H]4CC(=O)C=C(C)[C@]4(C)[C@H]3CC[C@]12C [METHENOLONE ACETATE] | 1 | 0% | 0 | 0 | 0 | 5 | 0 | 0% | 1 | 0 | 1 month - 15 years | 0 | 0 | 1 | yes | 0
4 | PENTOSAN POLYSULFATE SODIUM | 0 | 75% | 0 | 0 | 1 | 1 | 0 | 0% | 0 | 0 | 1 week - 2 weeks | 0 | 0 | 5 | yes | 0
